Laboratory results published in ChEMBL document CHEMBL3822358 (J Med Chem, 2016).

Legend:
[1] = target: Insulin-like growth factor 1 receptor (Homo sapiens, UniProt P08069)
Insulin receptor = Insulin receptor (Homo sapiens, UniProt P06213)
Description: Inhibition of human InsR using myelin basic protein as substrate and [gamma-33P]ATP measured after 1 hr

[2] = AUC (0 to infinity) in CD rat at 3 mg/kg, iv by LC-MS/MS analysis; assay type: ADME, organism-based; parameters: dose 3 mg/kg, time infinity, route intravenous; conditions: CD, in vivo
[3] = Clearance in CD rat at 3 mg/kg, iv by LC-MS/MS analysis; assay type: ADME, organism-based; conditions: in vivo
[4] = Half life in CD rat at 3 mg/kg, iv by LC-MS/MS analysis; assay type: ADME, organism-based; conditions: CD, in vivo
[5] = Volume of distribution at steady state in CD rat at 3 mg/kg, iv by LC-MS/MS analysis; assay type: ADME, organism-based; conditions: CD, in vivo, read-out: Vdss
[6] = Cmax in CD rat at 10 mg/kg, po by LC-MS/MS analysis; assay type: ADME, organism-based; parameters: dose 10 mg/kg, route oral; conditions: in vivo
[7] = AUC (0 to infinity) in CD rat at 10 mg/kg, po by LC-MS/MS analysis; assay type: ADME, organism-based; parameters: dose 10 mg/kg, route oral, time infinity; conditions: in vivo
[8] = Tmax in CD rat at 10 mg/kg, po by LC-MS/MS analysis; assay type: ADME, organism-based; conditions: in vivo
[9] = Half life in CD rat at 10 mg/kg, po by LC-MS/MS analysis; assay type: ADME, organism-based; conditions: in vivo
[10] = Oral bioavailability in CD rat at 10 mg/kg by LC-MS/MS analysis; assay type: ADME, organism-based; conditions: in vivo
[11] = Cmax in mouse at 10 mg/kg, po by LC-MS/MS analysis; assay type: ADME, organism-based; parameters: dose 10 mg/kg, route oral; conditions: in vivo
[12] = AUC (0 to 24 hrs) in mouse at 10 mg/kg, po by LC-MS/MS analysis; assay type: ADME, organism-based; parameters: time < 24 hr, dose 10 mg/kg, route oral; conditions: in vivo
[13] = Half life in mouse at 10 mg/kg, po by LC-MS/MS analysis; assay type: ADME, organism-based; conditions: in vivo
[14] = target: T1, ALK tyrosine kinase receptor (Homo sapiens, UniProt Q9UM73); test: Inhibition of ALK phosphorylation in mouse xenografted with human KARPAS299 cells assessed as p-ALK level at 25 mg/kg, po administered as single dose measured after 10 hrs relative to 2 hrs vehicle-treated tumor; assay type: organism-based; parameters: scale not given: the % may be the effect or the level left; conditions: KARPAS-299
Target sequence in this assay (Q9UM73 19-1620 limits assumed): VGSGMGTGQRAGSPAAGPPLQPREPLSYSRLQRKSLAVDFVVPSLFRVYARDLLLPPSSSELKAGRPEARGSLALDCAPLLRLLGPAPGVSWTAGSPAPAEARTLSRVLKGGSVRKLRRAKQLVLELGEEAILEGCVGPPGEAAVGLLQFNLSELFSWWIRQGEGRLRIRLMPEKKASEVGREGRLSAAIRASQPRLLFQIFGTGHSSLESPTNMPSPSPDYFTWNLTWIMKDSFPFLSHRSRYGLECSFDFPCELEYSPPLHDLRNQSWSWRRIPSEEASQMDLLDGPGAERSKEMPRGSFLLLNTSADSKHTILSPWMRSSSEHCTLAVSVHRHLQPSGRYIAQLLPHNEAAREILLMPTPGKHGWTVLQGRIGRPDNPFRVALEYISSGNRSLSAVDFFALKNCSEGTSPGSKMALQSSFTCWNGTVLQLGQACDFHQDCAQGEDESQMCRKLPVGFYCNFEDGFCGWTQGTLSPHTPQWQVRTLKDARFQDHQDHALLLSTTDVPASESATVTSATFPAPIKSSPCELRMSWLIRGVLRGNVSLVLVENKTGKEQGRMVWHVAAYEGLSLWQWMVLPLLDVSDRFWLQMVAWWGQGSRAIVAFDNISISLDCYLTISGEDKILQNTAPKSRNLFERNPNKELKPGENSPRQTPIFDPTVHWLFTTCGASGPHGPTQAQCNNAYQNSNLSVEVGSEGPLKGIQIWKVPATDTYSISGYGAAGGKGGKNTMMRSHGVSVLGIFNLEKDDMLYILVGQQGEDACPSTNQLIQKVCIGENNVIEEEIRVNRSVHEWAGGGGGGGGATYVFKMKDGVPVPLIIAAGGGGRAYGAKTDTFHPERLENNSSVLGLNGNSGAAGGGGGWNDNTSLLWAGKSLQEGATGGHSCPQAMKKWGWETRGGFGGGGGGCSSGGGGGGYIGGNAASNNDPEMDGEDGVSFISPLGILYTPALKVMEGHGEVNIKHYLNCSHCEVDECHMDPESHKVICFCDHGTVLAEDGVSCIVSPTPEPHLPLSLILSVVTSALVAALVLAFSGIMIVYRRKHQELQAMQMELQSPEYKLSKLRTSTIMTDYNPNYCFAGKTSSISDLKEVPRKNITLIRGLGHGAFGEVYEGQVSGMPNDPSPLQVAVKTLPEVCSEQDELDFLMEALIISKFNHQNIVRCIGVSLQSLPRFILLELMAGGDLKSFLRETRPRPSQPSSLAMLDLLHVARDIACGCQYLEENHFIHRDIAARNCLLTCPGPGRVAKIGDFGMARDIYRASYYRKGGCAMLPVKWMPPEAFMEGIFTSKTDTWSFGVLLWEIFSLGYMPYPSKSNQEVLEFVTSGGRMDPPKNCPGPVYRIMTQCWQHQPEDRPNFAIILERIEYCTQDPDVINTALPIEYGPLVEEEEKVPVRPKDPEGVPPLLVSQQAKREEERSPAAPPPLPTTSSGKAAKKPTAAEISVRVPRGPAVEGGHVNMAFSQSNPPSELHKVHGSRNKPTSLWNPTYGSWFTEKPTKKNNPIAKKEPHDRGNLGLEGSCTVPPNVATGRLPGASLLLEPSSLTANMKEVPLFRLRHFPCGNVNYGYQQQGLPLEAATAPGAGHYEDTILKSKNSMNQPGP

[15] = target: T1, ALK tyrosine kinase receptor; test: Inhibition of ALK phosphorylation in mouse xenografted with human KARPAS299 cells assessed as p-ALK level at 25 mg/kg, po administered as single dose measured after 16 hrs relative to 2 hrs vehicle-treated tumor; assay type: organism-based; parameters: scale not given: the % may be the effect or the level left; conditions: KARPAS-299
Target sequence in this assay (Q9UM73 19-1620 limits assumed): as above

[16] = target: T1, ALK tyrosine kinase receptor; test: Inhibition of ALK phosphorylation in mouse xenografted with human KARPAS299 cells assessed as p-ALK level at 25 mg/kg, po administered as single dose measured after 24 hrs relative to 2 hrs vehicle-treated tumor; assay type: organism-based; parameters: scale not given: the % may be the effect or the level left; conditions: KARPAS-299
Target sequence in this assay (Q9UM73 19-1620 limits assumed): as above

[17] = target: T1, ALK tyrosine kinase receptor
Description: Inhibition of human ALK using poly[Glu:Tyr] (4:1) as substrate and [gamma-33P]ATP measured after 1 hr

cells [18] = conditions: Homo sapiens, KARPAS-299, 72 h
Description: Antiproliferative activity against human ALK-positive KARPAS299 cells assessed as reduction in cell viability measured after 72 hrs by CellTiter 96 aqueous one solution cell proliferation assay

cells [19] = conditions: Homo sapiens, U-937, 72 h
Description: Antiproliferative activity against human ALK-negative U937 cells assessed as reduction in cell viability measured after 72 hrs by CellTiter 96 aqueous one solution cell proliferation assay

animal or person [20] = conditions: Homo sapiens, KARPAS-299, po, 312 h, read-out: TGI
Description: Antitumor activity against human KARPAS299 cells expressing NMP-ALK fusion protein xenografted in SCID/beige mouse assessed as tumor growth inhibition at 10 mg/kg, po administered once daily for 13 days relative to untreated control

animal or person [21] = conditions: Homo sapiens, KARPAS-299, po, 312 h, read-out: TGI; remark: listed apart in the source
Description: Antitumor activity against human KARPAS299 cells expressing NMP-ALK fusion protein xenografted in SCID/beige mouse assessed as tumor growth inhibition at 25 mg/kg, po administered once daily for 13 days relative to untreated control

animal or person [22] = conditions: Homo sapiens, KARPAS-299, po, 312 h, read-out: TGI; remark: listed apart in the source
Description: Antitumor activity against human KARPAS299 cells expressing NMP-ALK fusion protein xenografted in SCID/beige mouse assessed as tumor growth inhibition at 50 mg/kg, po administered once daily for 13 days relative to untreated control

Insulin-like growth factor 1 receptor, sequence (P08069 31-736 limits assumed): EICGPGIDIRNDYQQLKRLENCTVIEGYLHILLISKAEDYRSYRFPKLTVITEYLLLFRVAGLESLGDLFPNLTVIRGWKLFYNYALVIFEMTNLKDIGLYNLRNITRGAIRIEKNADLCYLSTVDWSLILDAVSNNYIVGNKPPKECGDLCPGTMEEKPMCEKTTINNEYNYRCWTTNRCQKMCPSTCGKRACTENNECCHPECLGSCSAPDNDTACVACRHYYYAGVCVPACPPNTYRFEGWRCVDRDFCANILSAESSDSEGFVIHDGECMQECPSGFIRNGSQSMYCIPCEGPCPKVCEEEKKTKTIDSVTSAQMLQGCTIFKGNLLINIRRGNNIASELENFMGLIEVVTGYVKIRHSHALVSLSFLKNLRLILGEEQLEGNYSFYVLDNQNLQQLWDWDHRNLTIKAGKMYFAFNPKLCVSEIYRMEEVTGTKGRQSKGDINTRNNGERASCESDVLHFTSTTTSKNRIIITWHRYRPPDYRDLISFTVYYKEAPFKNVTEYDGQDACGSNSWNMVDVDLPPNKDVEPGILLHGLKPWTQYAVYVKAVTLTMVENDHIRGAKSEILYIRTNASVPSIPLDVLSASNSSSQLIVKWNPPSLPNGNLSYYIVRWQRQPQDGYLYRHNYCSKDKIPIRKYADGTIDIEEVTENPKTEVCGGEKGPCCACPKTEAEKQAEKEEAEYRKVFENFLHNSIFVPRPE
Insulin-like growth factor 1 receptor, sequence (P08069 741-1367 limits assumed): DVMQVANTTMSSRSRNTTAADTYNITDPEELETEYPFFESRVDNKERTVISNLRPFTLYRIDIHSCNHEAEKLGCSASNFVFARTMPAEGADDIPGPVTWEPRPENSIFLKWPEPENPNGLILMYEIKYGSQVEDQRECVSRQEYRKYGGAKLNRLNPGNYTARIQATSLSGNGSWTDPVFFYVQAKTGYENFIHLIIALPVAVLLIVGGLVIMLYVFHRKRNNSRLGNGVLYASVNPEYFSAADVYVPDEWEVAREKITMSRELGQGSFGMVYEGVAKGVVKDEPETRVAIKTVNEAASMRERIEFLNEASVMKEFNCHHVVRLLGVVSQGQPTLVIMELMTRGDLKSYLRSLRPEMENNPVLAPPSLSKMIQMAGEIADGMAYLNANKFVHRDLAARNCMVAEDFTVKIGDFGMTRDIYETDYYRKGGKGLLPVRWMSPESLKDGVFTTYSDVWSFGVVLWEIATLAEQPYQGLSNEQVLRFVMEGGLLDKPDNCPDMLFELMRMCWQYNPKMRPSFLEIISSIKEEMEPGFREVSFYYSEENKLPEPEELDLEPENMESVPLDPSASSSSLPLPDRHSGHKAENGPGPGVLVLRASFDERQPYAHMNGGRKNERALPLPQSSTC
Insulin receptor, sequence (P06213 28-758 limits assumed): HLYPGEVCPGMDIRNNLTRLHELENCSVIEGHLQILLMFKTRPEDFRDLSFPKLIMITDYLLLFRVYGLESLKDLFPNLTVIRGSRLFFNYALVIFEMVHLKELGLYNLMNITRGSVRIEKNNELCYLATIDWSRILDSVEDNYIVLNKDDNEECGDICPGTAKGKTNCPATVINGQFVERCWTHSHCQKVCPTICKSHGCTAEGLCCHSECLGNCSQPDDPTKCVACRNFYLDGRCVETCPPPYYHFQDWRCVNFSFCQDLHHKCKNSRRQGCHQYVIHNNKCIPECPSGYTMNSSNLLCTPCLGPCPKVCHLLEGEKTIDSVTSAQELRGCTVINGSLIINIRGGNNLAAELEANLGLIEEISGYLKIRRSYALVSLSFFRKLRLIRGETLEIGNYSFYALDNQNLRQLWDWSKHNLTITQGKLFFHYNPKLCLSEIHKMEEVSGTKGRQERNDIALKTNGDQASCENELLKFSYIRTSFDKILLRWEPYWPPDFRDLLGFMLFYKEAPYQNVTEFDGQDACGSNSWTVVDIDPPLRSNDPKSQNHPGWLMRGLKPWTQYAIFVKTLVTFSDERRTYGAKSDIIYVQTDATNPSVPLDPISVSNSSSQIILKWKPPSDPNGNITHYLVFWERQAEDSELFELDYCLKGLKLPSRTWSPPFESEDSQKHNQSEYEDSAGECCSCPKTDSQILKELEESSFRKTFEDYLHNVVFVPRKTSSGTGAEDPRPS
Insulin receptor, sequence (P06213 763-1382 limits assumed): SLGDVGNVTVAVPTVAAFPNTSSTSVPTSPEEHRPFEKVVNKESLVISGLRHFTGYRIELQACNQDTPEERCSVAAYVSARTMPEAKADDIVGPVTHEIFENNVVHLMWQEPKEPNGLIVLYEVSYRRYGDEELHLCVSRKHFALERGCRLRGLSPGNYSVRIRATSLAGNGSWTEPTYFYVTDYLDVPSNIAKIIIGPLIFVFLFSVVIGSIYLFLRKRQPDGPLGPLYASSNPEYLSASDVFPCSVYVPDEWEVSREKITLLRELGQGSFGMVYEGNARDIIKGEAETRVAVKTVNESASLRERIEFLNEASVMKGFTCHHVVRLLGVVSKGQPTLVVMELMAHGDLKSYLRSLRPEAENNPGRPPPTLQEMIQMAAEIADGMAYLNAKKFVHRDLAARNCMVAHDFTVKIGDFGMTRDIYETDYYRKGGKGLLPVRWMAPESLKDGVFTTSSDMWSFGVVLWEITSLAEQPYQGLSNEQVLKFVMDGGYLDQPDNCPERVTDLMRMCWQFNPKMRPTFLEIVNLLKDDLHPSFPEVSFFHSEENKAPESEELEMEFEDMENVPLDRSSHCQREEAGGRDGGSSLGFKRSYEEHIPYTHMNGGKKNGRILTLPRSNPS

IC50 [1] | IC50 (Insulin receptor) | AUC(0-inf) [2] | clearance [3] | half-life [4] | Vd [5] | Cmax [6] | AUC(0-inf) [7] | Tmax [8] | half-life [9] | bioavailability [10] | Cmax [11] | AUC(0-t) at 24 h [12] | half-life [13] | Activity [14] | Activity [15] | Activity [16] | IC50 [17] | IC50 (cells [18]) | IC50 (cells [19]) | Structure (SMILES) | further results
8.2 nM | 57.2 nM | 1550 ng·h/mL | 31.8 mL/min/kg | 4 h | 8.55 L/kg | 601 ng/mL | 5670 ng·h/mL | 4 h | 2.5 h | 110% | 421 ng/mL | 3450 ng·h/mL | 5 h | 1% | 69% | 118% | 0.38 nM | 19.2 nM | 3560 nM | COc1cc(C2CCN(C)CC2)ccc1Nc1ncc(Cl)c(Nc2ccccc2P(C)(C)=O)n1 | 
20.3 nM | 85.3 nM | 2170 ng·h/mL | 22.7 mL/min/kg | 4.7 h | 6.61 L/kg | 109 ng/mL | 1350 ng·h/mL | 4 h | 3.7 h | 19% | 411 ng/mL | 3230 ng·h/mL | 3.1 h | 2% | 39% | 51% | 0.53 nM | 21.1 nM | 1680 nM | COc1cc(N2CCC(N3CCCC3)CC2)ccc1Nc1ncc(Cl)c(Nc2ccccc2P(C)(C)=O)n1 | inhibition in vivo at 10 mg/kg (animal or person [20]): 76%; inhibition in vivo at 25 mg/kg (animal or person [21]): 52%; inhibition in vivo at 50 mg/kg (animal or person [22]): 26%
31.6 nM | 130 nM | 8620 ng·h/mL | 5.83 mL/min/kg | 3.6 h | 1.46 L/kg | 353 ng/mL | 4570 ng·h/mL | 6 h | 3.4 h | 16% | 498 ng/mL | 6490 ng·h/mL | 3.1 h | 13% | 60% | 104% | 0.88 nM | 29.9 nM | 2720 nM | COc1cc(N2CCC(CN3CCC3)CC2)ccc1Nc1ncc(Cl)c(Nc2ccccc2P(C)(C)=O)n1 | 
